Converted amounts (≈) assume the structure as drawn. Square brackets hold non-standard residues; d marks the D form. Peptide text beside a SMILES is read from it. βAla = NCCC(=O)O

One data set relates to Enterobacter. In kind it is cell-based. The protocol:
The IC50 is determined by an essay, suitable for the specific film-forming microorganism in question. For example, in the present invention, the Enterobacter assay, which is described in detail in the methods section below, was used to determine the antimicrobial activities of the tested peptides.
Quantitative Biofilm Growth Inhibition Assay in a 96-Wells Microtiter Plate:
Enterobacter culture (50 ml) was grown in tryptic soy broth media (TBS; prepared according to manufacturer instructions) overnight at 25° C. On the next day the turbidity of the culture was measured at 600 nm (Biomate 5 UV-Vis spectrophotometer, Thermo Fisher Scientific, Waltham, Mass.) and, if necessary, TSB was added to dilute the culture until the OD was 1.
Then 96 wells polystyrene microtiter plates (flat bottom, transparent, Becton Dickinson, Franklin Lakes, New-Jersey) were filled as following: Negative control wells (without bacteria) were filled with 125 μl TSB media and 25 μl of DDW:PBS1:1 buffer solution; Positive control wells (without peptide solution) were filled with 110 μl TSB media, 25 μl of DDW:PBS1:1 buffer solution and 15 μl of Enterobacter culture solution; Wells that contained AMPs at different concentrations were filled with 110 μl TSB media, 25 μl of peptide solution and 15 μl of Enterobacter culture solution.
The plates were incubated at 25° C. overnight. On the next day the plates were gently rinsed 5 times with distilled water to remove the planktonic bacteria and then dried at room temperature for 10 minutes. Then the biofilm on the walls of the wells was dyed by adding 200 μl, of 3% crystal violet (CV) to the wells. After 15 minutes at room temperature, the plates were gently rinsed 5 times with distilled water to remove excess dye and dried at room temperature for 10 minutes (Djordjevic, Wiedmann & McLandsborough 2002). The dry plates were filled with 200 μl ethanol, covered and gently agitated (Duomax 1030 rocking platform shaker, Heidolph, Kelheim, Germany) for 1 hour. The absorbance of extracted color was measured in a plate reading spectrophotometer (Infinite M200, Tecan, Mannedorf, Switzerland) at 595 nm.
The effect of linking the arm to a peptide, on the antimicrobial activity of the peptides was assessed by measuring the peptide activity in 96-microtitter plates in solution and comparing to activities of the normal peptides. Experiments were performed in water and in 3% NaCl solution. Table 6 presents the antimicrobial activity (IC50) of peptide-arm systems, in water and in 3% NaCl solution. Values were extracted from dose-response curves.
Different concentration solutions of peptides, bought or prepared as detailed in the methods section above, were prepared by diluting a stock solution with 1% ACN. Stock solution was prepared by dissolving water soluble peptides in DDW:PBS1:1. PBS (pH=7.4) was prepared by adding to 800 ml DDW, 8 grams NaCl, 0.2 grams KCl, 1.44 grams Na2HPO4 and 0.2 grams KH2PO4.
To evaluate whether attachment of a tether to the AMPs has an effect on the inhibitory potency, a PEGylated peptide (HS-PEG-D-Modelin-1) was prepared, and its inhibitory potency compared to that of the ‘normal’ peptide All-D-Modelin-1. Peptides were diluted in 2-fold serial dilutions, and the antibacterial activity of the peptides was determined in sterile 96-multititter plates.

Data set [1] deals with biofilm. Put plainly: Confocal microscope analysis of biofilm developed on modified RO membranes. In kind it is cell-based. The conditions noted are these: biofilm on RO membrane modified with the peptide. As for the experimental part: b) Quantitative Measurements:
For biofilm growth measurements, modified membranes were tested in static conditions and in a flow-through system.
For static conditions membranes were glued with RTV 186 glue to a 1 cm×1 cm glass slides and were incubated in 24-wells plate, containing Green fluorescent protein (GFP) expressing Pseudomonas aeruginosa culture, for 18 hours (37° C.). Then, the membranes were washed with DDW to remove planktonic bacteria and the formed biofilm was detected by Leica DM 2500 confocal laser scanning microscope (CLSM, Wetzlar, Germany).
For the flow-through system, 1 cm×1 cm membranes were glued to a 2.6 cm×7.6 cm glass slide and the slide was placed in a flow cell. First, GFP expressing Pseudomonas aeruginosa was introduced to the cell and incubated for 1 hour. Then, the planktonic bacteria were washed out and sterile growth media was brought in to the cell with 50 ml/h flow rate. After 24 hours the sample was removed from the cell and biofilm fluorescence was detected by confocal laser scanning microscope. The dyed membranes were analyzed by a confocal laser scanning microscope.
Quantitative and qualitative indications for biofilm formation on modified vs. non modified RO membranes were checked.
The results of the confocal microscope analysis of the biofilm that developed on the different membranes showing reduced biofilm formation on the modified membranes are summarized in Table 15.

Data set [2] concerns proteolytic enzymes (trypsin, chymotrypsin, pronase E). In kind it is in vitro ADME. The protocol:
Resistance to proteolysis can be determined according to trypsin, chymotrypsin or pronase E assay, as detailed below in the Methods section, namely by adding to each 90 μl of peptide solution, 10 μl of enzyme solution, containing either a mixture of 0.5 μg trypsin (0.05 mg/ml) and 0.5 μg chymotrypsin (0.05 mg/ml) or 4 μg pronase E (0.4 mg/ml) in 0.001M HCl. The enzymatic degradation of the peptide is monitored at controlled temperature of 25° C. A peptide can be considered to be resistant to proteolysis if it withstands this assay for at least 1 week, maintaining at least 90% of its initial concentration after this period.
(§1) Proteolytic Stability Assay of Peptides:
Stock solution (0.56 mg/ml) of each peptide was prepared by dissolving the peptide in PBS (pH=7.4). […] The enzymatic degradation of the peptide was monitored at controlled temperature of 25° C. by RP-HPLC with detection at 220 nm using Phenomenex C18 4.6×250 mm column with 5 μm particle size and 110 Å pore size. […]
Enzymes concentrations were determined by preliminary experiment that was performed to screen for concentrations allowing complete degradation of C-Modelin-1 within 1-2 hours. 10 μl of enzyme solution with varying concentrations were added to 90 μl of peptide solution (0.56 mg/ml) and enzymatic degradation of the peptide was monitored by RP-HPLC. […]

In a further data set the test system is pronase E. In kind it is in vitro ADME. As for the experimental part:
as §1
Stock solution (0.56 mg/ml) of each peptide was prepared by dissolving the peptide in PBS (pH=7.4). To each 90 μl of peptide solution 10 μl of enzyme solution, containing either a mixture of 0.5 μg trypsin (0.05 mg/ml) and 0.5 μg chymotrypsin (0.05 mg/ml) or 4 μg pronase E (0.4 mg/ml) in 0.001M HCl, was added. The enzymatic degradation of the peptide was monitored at controlled temperature of 25° C. by RP-HPLC with detection at 220 nm using Phenomenex C18 4.6×250 mm column with 5 μm particle size and 110 Å pore size. Elution gradient was: t=0 minutes, B=15%; t=5 minutes, B=15%; t=40 minutes, B=70%; t=42 minutes, B=95%; t=52 minutes, B=95% (flow rate 1 ml/minute).
Enzymes concentrations were determined by preliminary experiment that was performed to screen for concentrations allowing complete degradation of C-Modelin-1 within 1-2 hours. 10 μl of enzyme solution with varying concentrations were added to 90 μl of peptide solution (0.56 mg/ml) and enzymatic degradation of the peptide was monitored by RP-HPLC.
The enzymatic degradation was monitored at a fixed temperature of 25° C. by RP-HPLC at 220 nm, as described before. Elution gradient started with 85% A/15% B for 5 minutes continued with 30% A/70% B for 35 minutes and ended with 5% A-95% B for 12 minutes.
All the enzymes were used in concentrations allowing complete degradation of C-Modelin-1 within […].

In data set [3] the test system is biofilm. Put plainly: Biovolume of biofilm on graft-polymerized RO membranes (FIGS. 4-6). In kind it is cell-based. Conditions: immobilized on RO membrane after graft polymerization and 1,4-butadiamine; FIGS. 4 and 5. The source says:
FIGS. 4 and 5 show the biovolume of biofilm on RO membranes modified with Cys-Modelin-1, whereas in FIG. 4: (A) is an unmodified membrane (control), (B) is after Graft polymerization (GP), (C) is after GP and 1,4-butadiamine, (D) is after GP, 1,4-butadiamine and MI (maleimide-hexanoic acid), and (E) is after GP, 1,4-butadiamine, MI and C-Modelin-1.
Another example for immobilization through multivalent system is shown in FIG. 6, showing the volume of the biofilm by graft polymerization with 0.2:0.2 M MA:PEGM and immobilization with All-D-Cys-Modelin-1. […] The inhibition was very much dependent of the graft polymerization step: Grafting by 0.2:0.2 M of monomers PEGMA:MA (see Scheme 6 for monomer structures) gave the best results.

Take `N=C(N)NCCC[C@H](NC(=O)CNC(=O)CNC(=O)CNC(=O)[C@@H](N)CS)C(=O)N[C@@H](CCCNC(=N)N)C(=O)N[C@@H](Cc1c[nH]c2ccccc12)C(=O)N[C@@H](Cc1c[nH]c2ccccc12)C(=O)N[C@@H](CCCNC(=N)N)C(=O)N[C@@H](Cc1ccccc1)C(N)=O` [CG3-Hexapeptide-4, CGGGRRWWRF-NH2] (H-CGGGRRWWRF-NH2; N-terminus assumed): in the data set on Enterobacter, the “IC50 Normal conditions” value was 160 mg/L (≈ 125 µM) and the “IC50 in 3% Aqueous NaCl” value turned out to be 150 mg/L (≈ 117 µM). Also, in the data set with biofilm [1], the Biovolume is 8.9 * 10^4 μm^3 and the Thickness came out at 9.5 μm.

What is called IC50 is the point on the concentration scale where inhibition reaches its midpoint. The low end stands for higher potency, the high end for lower potency. The molecule `CC(C)C[C@@H](NC(=O)[C@@H](CCCCN)NC(=O)[C@H](N)CS)C(=O)N[C@H](Cc1c[nH]c2ccccc12)C(=O)N[C@H](CCCCN)C(=O)N[C@H](CCCCN)C(=O)N[C@H](Cc1c[nH]c2ccccc12)C(=O)N[C@H](C)C(=O)N[C@H](CCCCN)C(=O)N[C@H](CCCCN)C(=O)N[C@H](Cc1c[nH]c2ccccc12)C(=O)N[C@H](CC(C)C)C(=O)N[C@H](CCCCN)C(=O)N[C@H](CC(C)C)C(=O)N[C@H](Cc1c[nH]c2ccccc12)C(=O)N[C@H](CCCCN)C(=O)N[C@H](C)C(=O)N[C@H](Cc1c[nH]c2ccccc12)C(=O)O` [All-D C-Modelin-1, CKLWKKWAKKWLKLWKAW] (H-[dC][dK][dL][dW][dK][dK][dW][dA][dK][dK][dW][dL][dK][dL][dW][dK][dA][dW]-OH) had a half-maximal inhibitory concentration (IC50) in the data set on Enterobacter of 10 mg/L (≈ 4.11 µM). In data set [2], the “higher stability compared with the unprotected Cys-Modelin-1” value was “over 100 fold” and the “remained stable when treated with the proteolytic enzymes” value is given as “over 2 weeks”.

As to `CC(C)C[C@H](NC(=O)[C@H](CCCCN)NC(=O)[C@H](CC(C)C)NC(=O)[C@H](Cc1c[nH]c2ccccc12)NC(=O)[C@H](CCCCN)NC(=O)[C@H](CCCCN)NC(=O)[C@H](C)NC(=O)[C@H](Cc1c[nH]c2ccccc12)NC(=O)[C@H](CCCCN)NC(=O)[C@H](CCCCN)NC(=O)[C@H](Cc1c[nH]c2ccccc12)NC(=O)[C@H](CC(C)C)NC(=O)[C@H](CCCCN)NC(=O)[C@@H](N)CS)C(=O)N[C@@H](Cc1c[nH]c2ccccc12)C(=O)N[C@@H](CCCCN)C(=O)N[C@@H](C)C(=O)N[C@@H](Cc1c[nH]c2ccccc12)C(=O)NCCC(=O)O` [C-Modelin-1-βAla, CKLWKKWAKKWLKLWKAW-βAla] (H-CKLWKKWAKKWLKLWKAW[βAla]-OH), the half-maximal inhibitory concentration (IC50) in the data set on Enterobacter was 4 mg/L (≈ 1.6 µM). In addition, in the data set on pronase E, the “digestion first detected after” value was found to be 5 min and the “peptides completely degraded after” value turned out to be 135 min.

As for `CC(C)C[C@H](NC(=O)[C@H](CCCCN)NC(=O)CNC(=O)CNC(=O)CNC(=O)CNC(=O)[C@@H](N)CS)C(=O)N[C@@H](Cc1c[nH]c2ccccc12)C(=O)N[C@@H](CCCCN)C(=O)N[C@@H](CCCCN)C(=O)N[C@@H](Cc1c[nH]c2ccccc12)C(=O)N[C@@H](C)C(=O)N[C@@H](CCCCN)C(=O)N[C@@H](CCCCN)C(=O)N[C@@H](Cc1c[nH]c2ccccc12)C(=O)N[C@@H](CC(C)C)C(=O)N[C@@H](CCCCN)C(=O)N[C@@H](CC(C)C)C(=O)N[C@@H](Cc1c[nH]c2ccccc12)C(=O)N[C@@H](CCCCN)C(=O)N[C@@H](C)C(=O)N[C@@H](Cc1c[nH]c2ccccc12)C(=O)O` [CG4-Modelin-1] (H-CGGGGKLWKKWAKKWLKLWKAW-OH; N-terminus assumed), the “IC50 Normal conditions” value in the data set with Enterobacter was found to be 100 mg/L (≈ 37.6 µM). In the data set on biofilm [1], the Biovolume is 9.3 * 10^4 μm^3 and the Thickness was found to be 9.5 μm.

Turning to `CC(C)C[C@H](NC(=O)[C@H](CCCCN)NC(=O)[C@H](CC(C)C)NC(=O)[C@H](Cc1c[nH]c2ccccc12)NC(=O)[C@H](CCCCN)NC(=O)[C@H](CCCCN)NC(=O)[C@H](C)NC(=O)[C@H](Cc1c[nH]c2ccccc12)NC(=O)[C@H](CCCCN)NC(=O)[C@H](CCCCN)NC(=O)[C@H](Cc1c[nH]c2ccccc12)NC(=O)[C@H](CC(C)C)NC(=O)[C@H](CCCCN)NC(=O)[C@@H](N)CS)C(=O)N[C@@H](Cc1c[nH]c2ccccc12)C(=O)N[C@@H](CCCCN)C(=O)N[C@@H](C)C(=O)N[C@@H](Cc1c[nH]c2ccccc12)C(=O)O` [C-Modelin-1, CKLWKKWAKKWLKLWKAW] (H-CKLWKKWAKKWLKLWKAW-OH), the half-inhibitory concentration (IC50) in the data set on Enterobacter is 11 mg/L (≈ 4.52 µM). For the same molecule, in the data set on pronase E, the “digestion first detected after” value turned out to be 5 min and the “peptides completely degraded after” value came to 135 min. In addition, the reduced biofilm growth in the data set on biofilm [3] is on record as 65%.

As for `O=C(O)CCCCCN1C(=O)C=CC1=O` [maleimide-hexanoic acid, 6-maleimidohexanoic acid], in the data set on biofilm [3], the reduced biofilm growth came to 95%.

Source of the values: patent US9175036B2, “Antimicrobial water treatment membranes and production thereof” (BEN-GURION UNVERSITY OF THE NEGEV RESEARCH AND DEVELOPMENT …, priority 2009, dated 2015).
